Measured values reported in article PMC10787068, “Targeting the Mitochondrial Chaperone TRAP1 Alleviates Vascular Pathologies in Ischemic Retinopathy” (Advanced Science, 2023).
Entries after “also recorded” stand apart in the source; their conditions may differ.

Tests used:
HIF1α = HIF1α degradation in MIO‐M1 cells under hypoxia (western blotting); assay type: cell-based, human; conditions: MIO‐M1 cells, 6 h under hypoxia
[1] = Normal cell cytotoxicity in primary Müller cells (trypan blue staining); assay type: cell-based; conditions: mouse, primary Müller cells from mouse retina, 24 hr under hypoxia, n = 4, mean ± SEM
Protocol: (§1) Mouse primary Müller cells were isolated as reported previously.^[ [43] ^] In brief, retinas were isolated from P5–P7 mice and dissociated using a Papain Dissociation Kit (Worthington Industries; Columbus, OH, USA). Collected retinal cells were incubated on a plate coated with 0.1% gelatin (Sigma), and the culture media (DMEM supplemented with 10% FBS and 1% penicillin‐streptomycin) was changed once every 2 days. Cells were subcultured into a new plate and incubated for another 7 days. Adherent cells were largely primary Müller cells, as confirmed by immunocytochemical analysis using an anti‐glutamine synthetase antibody (Millipore). […]
(§2) bar, 500 μm. B) Quantification of avascular and neovascular tuft areas in OIR mice intravitreally injected with MitoQ (n = 5 mice/group). […] Harvested retinal samples were whole-mounted and analyzed as in (A). […]
(§3) Scale bar, 500 μm. D) Quantification of avascular and neovascular tuft areas in OIR mice topically treated with MitoQ (n = 6 mice/group). […]
(§4) their cytotoxic activities were analyzed in four independent experiments by trypan blue staining. The calculated IC50 values are presented in the normal cell cytotoxicity column in Table 1. […] A 3D culture of human corneal epithelium (MCTT HCE) was incubated with 2 mM TRAP1 inhibitors and analyzed by H&E staining.
(§5) The culture thickness (n = 5) was measured and analyzed (Table S1). […]

[2] = system: mouse primary Müller cells; assay: as above; assay type: cell-based; conditions: 24 hr under hypoxia, n = 4, mean ± SEM
Protocol: as §1, §2, §3, §4, §5

mouse cornea = assay: Corneal toxicity after topical application (H&E staining); assay type: in vivo; conditions: 2 mM once daily for 6 days
Protocol: their cytotoxic activities were analyzed in four independent experiments by trypan blue staining. The calculated IC50 values are presented in the normal cell cytotoxicity column in Table 1. B) Topical toxicity of TRAP1 inhibitors. A 3D culture of human corneal epithelium (MCTT HCE) was incubated with 2 mM TRAP1 inhibitors and analyzed by H&E staining.
The culture thickness (n = 5) was measured and analyzed (Table S1). Scale bar, 25 μm. C) Corneal toxicity. After topical application of 2 mM MitoQ, SB-U014, or SB-U015 once daily for 6 days, the mouse cornea was harvested and analyzed by H&E staining. Treatment with […]
Supplementary Table 1. Percentage viability and thickness of the 3D culture of MCTT […]
Drug Percentage viability (%) Thickness (μm)
A 3D culture of human corneal epithelium (MCTT HCE) was incubated with 2 mM TRAP1 inhibitors, and the percentage viability was analyzed by the WST-1 assay (n = 4). Absorbance was measured with a microplate reader. Thickness was calculated from H&E staining images (n = 5) as in Figure S18B, Supporting information. Data Information: The data are […]

Trap1 KO MIO-M1 cells = assay: TRAP1 inhibitor effects in Trap1 KO MIO‐M1 cells; assay type: cell-based, human
Protocol: MIO‐M1 Trap1 KO cell lines were generated using CRISPR/Cas9‐derived RNA‐guided endonucleases (Toolgen; Seoul, Republic of Korea). MIO‐M1 cells were co‐transfected with the Cas9 vector and TRAP1‐sgRNA expression vector (sgRNA sequence 1; 5′‐[…]‐3′ and sequence 2; 5′‐[…]‐3′) using jetPRIME transfection reagent (Polyplus; Illkirch‐Graffenstaden, France). Transfected cells were selected in culture medium containing […] puromycin (Sigma). Single‐cell colonies were collected using a cloning cylinder (I.D. × H 6.4 mm × 8 mm; Sigma) and analyzed using T7 endonuclease I to confirm Trap1 KO.
Supplementary Figure 16. Calpain-1 autolysis and HIF1α degradation in Trap1 […]
A) HIF1α degradation and calpain-1 autolysis in Trap1 knockout (KO) MIO-M1 cells. Trap1 KO MIO-M1 cells were generated as described in the Experimental Section and incubated in hypoxia for 6 hr, followed by analysis using western blotting. Under hypoxia, HIF1α degradation and autoproteolysis of calpain-1 were found in Trap1 KO MIO-M1 cells, when compared with wild type (WT) cells. […]
cell lines were established using MIO-M1 cells. WT and KO cells were incubated with MitoQ for 6 hr under hypoxia and analyzed by western blotting. Trap1 KO reduced the expression of […]
Quantification of the HIF1α protein level. HIF1α western blot density was analyzed and compared. Data are expressed as mean ± SEM from four independent experiments.
C) Cytoplasmic calcium concentration. WT and Trap1-KO MIO-M1 cells were labeled with […]
Fluo-4 AM, incubated with 3 μM gamitrinib or 1 μM MitoQ for 6 hr under hypoxia, collected, and analyzed by flow cytometry. Data information: Data are expressed as mean ± SEM.
Student t-test, ***P < 0.001; ns, not significant. […]

## COC1=C(OC)C(=O)C(CCCCCCCCCC[P+](c2ccccc2)(c2ccccc2)c2ccccc2)=C(C)C1=O [MitoQ, mitoquinone]
HIF1α; Homo sapiens, western blot band intensity, n = 4, mean ± SEM
  IC50: 0.077 ± 0.016 µM
HIF1α
  potency in inducing the degradation of HIF1α relative to gamitrinib: more than 10 fold
[1]
  IC50 at 24 h: 22 µM
[2]
  IC50: 22.5 ± 0.46 µM
Mouse cornea
  histologic abnormality of cornea after topical application: did not cause any noticeable abnormality
Trap1 KO MIO-M1 cells; 3 μM gamitrinib or 1 μM MitoQ, 6 hr under hypoxia, Fluo-4 AM flow cytometry
  cytosolic calcium concentration in Trap1−/− cells: did not affect
Trap1 KO MIO-M1 cells; 6 hr under hypoxia, western blotting
  HIF1α expression in Trap1−/− cells: not further affected; also recorded: did not affect
Trap1 KO MIO-M1 cells; hypoxia
  calpain‐1 activation in Trap1−/− cells: did not affect
